{"source": "patent US9321796B2", "about": "“Galactopyranosyl derivatives useful as medicaments” (Universiteit Gent, priority 2012, dated 2016)", "key": {"[1]": {"molecular_target": "T1, TCR / mCD1d-glycolipid complex (Mus musculus, UniProt P11609)", "T1 sequence (P11609 19-297)": "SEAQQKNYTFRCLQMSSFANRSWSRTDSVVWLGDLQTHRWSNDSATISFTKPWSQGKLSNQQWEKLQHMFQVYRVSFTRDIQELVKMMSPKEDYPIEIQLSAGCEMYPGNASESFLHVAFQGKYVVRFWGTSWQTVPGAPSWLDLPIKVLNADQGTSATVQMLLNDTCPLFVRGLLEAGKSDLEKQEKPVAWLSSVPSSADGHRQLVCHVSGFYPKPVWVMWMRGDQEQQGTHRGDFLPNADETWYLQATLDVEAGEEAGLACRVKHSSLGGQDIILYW", "T1 sequence (P01887 21-119 partner)": "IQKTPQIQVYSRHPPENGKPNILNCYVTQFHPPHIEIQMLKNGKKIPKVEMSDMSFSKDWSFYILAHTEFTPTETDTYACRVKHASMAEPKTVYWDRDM", "assay": "Surface plasmon resonance: TCR binding to mCD1d-glycolipid complexes", "protocol": "SPR studies were conducted using a Biacore 3000 (Biacore). Glycolipids were dissolved at 1 mg/ml in DMSO and before loading were diluted to 0.25 mg/ml with vehicle solution (50 mM Tris-HCl pH 7.0, 4.8 mg/ml sucrose, 0.5 mg/ml deoxycholate and 0.022% Tween-20), heated for 20 minutes at 80° C. After cooling 1 μg of each lipid was incubated with 10 μg enzymatically biotinylated mCD1d overnight at room temperature. In one embodiment, 400-600 response units (RU) of mCD1d-glycolipid complexes were immobilized onto a CA capture chip (Biacore). A reference surface was generated in another flow channel with unloaded mCD1d immobilized at RU of 500. During the association phase, a series of increasing concentrations of TCR (in 10 mM HEPES, 150 mM NaCl, 3.0 mM EDTA, pH 7.4) in duplicate were injected for 80 seconds and the dissociation phase (running buffer only) was monitored over 45 minutes. Experiments were carried out at 25° C. with a flow rate of 30 μl/min and performed at least two to three times, each time with a different batch of TCR preparation. Kinetic parameters were calculated after subtracting the response to mCD1d molecules in the reference channel, using a simple Langmuir 1:1 model in the BIA evaluation software version 4.1. One representative sensorgram for each lipid is shown. […]"}, "CD1d": {"molecular_target": "T2, CD1d (Mus musculus, UniProt P11609)", "T2 construct": "made in house", "T2 sequence (P11609 19-297 limits assumed)": "T1 sequence (P11609 19-297)", "assay": "Buried surface area between glycolipid and CD1d in crystal structures", "conditions": "mCD1d-glycolipid-mTCR crystal structures", "protocol": "First, the ternary mCD1d-lipid-mTCR complexes using the glycolipids 4ClPhC-α-GalCer (3a) and PyrC-α-GalCer (3c) were prepared as described previously for NU-α-GalCer, and purified by size exclusion chromatography (SEC) using Superdex S200 10/300 GL (GE Healthcare). Both mCD1d-4ClPhC-α-GalCer-mTCR and mCD1d-PyrC-α-GalCer-mTCR complexes were concentrated to 3.5 mg/ml in SEC buffer (50 mM Hepes, pH 7.5, 150 mM NaCl). Crystals were grown at 22.3° C. by sitting drop vapor diffusion while by mixing 0.5 μl mCD1d-4ClPhC-α-GalCer-mTCR and 0.5 μl precipitate (20% PEG 4000, 0.2 M sodium thiocyanate) or by mixing 1 μl mCD1d-PyrC-α-GalCer-mTCR and […] precipitate (20% PEG 4000, 0.2 M di-ammonium hydrogen citrate), respectively.\nCrystals were flash-cooled at 100° K in a mother liquor containing 30% glycerol. […]\nThe asymmetric unit contains one mCD1d-glycolipid-TCR molecule with estimated solvent content of 57.3% based on a Matthews' coefficient (Vm) of 2.88 A^3/Da for 4ClPhC-α-GalCer and 56.9% (VM) of 2.86 A^3/Da for PyrC-α-GalCer. Crystal structures were determined by molecular replacement using MOLREP as part of the CCP4 suite. […]"}, "solid tumours": {"system": "solid tumours", "conditions": "Phase I study; cited from earlier work"}}, "data": [{"smiles": "CCCCCCCCCCCCCCCCCCCCCCCCCC(=O)N[C@@H](CO[C@H]1O[C@H](CO)[C@H](O)[C@H](O)[C@H]1O)[C@H](O)[C@H](O)CCCCCCCCCCCCCC", "note": "[α-GalCer, α-galactosyl ceramide]", "values": [{"measurement": "Kd", "setting": "[1]", "result": 11, "unit": "nM"}, {"measurement": "buried surface area between glycolipid and CD1d", "setting": "CD1d", "result": "1,027 Å^2"}, {"measurement": "treatment of solid tumours", "setting": "solid tumours", "result": "ineffective"}]}]}
